Measured values reported in patent US7144591B2, “Composition containing citronella java oil and use thereof for repelling insects” (priority 2002, dated 2006).

System: Aedes aegypti (yellow fever mosquitoes)
Test: Repellent activity with respect to mosquitoes, treated forearm in cage (Swiss Tropic Institute method)
Type: in vivo
Details: 2 ml on 250 cm^2 forearm, 400 mosquitoes in cage, hourly 10 min exposure

With `O=C(O)CC(O)(CC(=O)O)C(=O)O` [PC4, citric acid] the “repellent activity with respect to mosquitoes (result in words)” value was “surprisingly bad results”.
